Source: ChEMBL document CHEMBL1201862, “PubChem BioAssay data set” (2004)
Active and inactive are the calls of the source.

Experiments:
[1] = target: DNA damage-inducible transcript 3 protein (Mus musculus, UniProt P35639); assay type: functional, Cricetulus griseus
[2] = target: T1, Heat shock factor protein 1 (Mus musculus, UniProt P38532); experiment: HSF1 potentiators in luciferase reporter cells, confirmation, cell-based, NIH3T3, luminescence, dose retest (AID 435004); assay type: functional;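 further: stress induced by proteasome inhibitor MG132 added 30 min after compound; luciferase reporter driven by HSF1 response element in NIH3T3 cells; actives raise luminescence as potentiators of the MG132 stress response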
T1 sequence (P38532 whole entry): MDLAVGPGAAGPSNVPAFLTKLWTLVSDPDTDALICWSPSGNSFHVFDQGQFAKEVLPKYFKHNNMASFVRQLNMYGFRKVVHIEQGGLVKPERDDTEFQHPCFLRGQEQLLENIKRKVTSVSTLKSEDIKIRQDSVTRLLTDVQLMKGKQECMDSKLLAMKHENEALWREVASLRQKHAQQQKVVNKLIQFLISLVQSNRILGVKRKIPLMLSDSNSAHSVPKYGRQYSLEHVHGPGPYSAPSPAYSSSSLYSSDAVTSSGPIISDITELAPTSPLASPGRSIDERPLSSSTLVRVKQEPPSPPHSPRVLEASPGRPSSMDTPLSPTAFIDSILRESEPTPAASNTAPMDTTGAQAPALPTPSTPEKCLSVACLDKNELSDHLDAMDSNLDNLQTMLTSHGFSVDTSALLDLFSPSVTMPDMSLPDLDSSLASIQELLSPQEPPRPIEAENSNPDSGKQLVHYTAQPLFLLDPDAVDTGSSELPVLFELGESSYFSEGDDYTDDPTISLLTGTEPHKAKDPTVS

Coagulation factor XII = target: T2, Coagulation factor XII (Homo sapiens, UniProt P00748); assay type: functional;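 further: activated factor XIIa alpha cleaving a fluorogenic AMC peptide substrate; inhibitor potency from loss of enzyme activity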
T2 sequence (P00748 whole entry): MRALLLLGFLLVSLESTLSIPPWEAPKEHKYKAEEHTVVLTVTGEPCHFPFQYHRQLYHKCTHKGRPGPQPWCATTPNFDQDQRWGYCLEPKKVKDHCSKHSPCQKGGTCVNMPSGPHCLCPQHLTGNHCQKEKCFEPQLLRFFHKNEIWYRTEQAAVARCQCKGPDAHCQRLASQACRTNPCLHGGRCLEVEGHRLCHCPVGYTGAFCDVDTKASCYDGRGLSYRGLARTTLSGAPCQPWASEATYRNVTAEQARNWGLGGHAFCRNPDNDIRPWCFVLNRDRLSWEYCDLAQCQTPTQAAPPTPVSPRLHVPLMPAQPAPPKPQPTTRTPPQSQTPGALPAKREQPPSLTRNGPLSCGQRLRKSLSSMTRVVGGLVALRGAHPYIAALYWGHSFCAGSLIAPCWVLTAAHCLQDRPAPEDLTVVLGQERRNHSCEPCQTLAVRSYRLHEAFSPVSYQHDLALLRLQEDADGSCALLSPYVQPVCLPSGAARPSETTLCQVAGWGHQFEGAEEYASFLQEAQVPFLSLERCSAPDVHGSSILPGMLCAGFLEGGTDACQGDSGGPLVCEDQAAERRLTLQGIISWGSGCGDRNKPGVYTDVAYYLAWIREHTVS

Cysteine protease ATG4B = target: T3, Cysteine protease ATG4B (Homo sapiens, UniProt Q9Y4P1); assay type: functional;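 further: Fluorescence-based dose-response confirmation assay measuring inhibition of ATG4B activity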
T3 sequence (Q9Y4P1 whole entry): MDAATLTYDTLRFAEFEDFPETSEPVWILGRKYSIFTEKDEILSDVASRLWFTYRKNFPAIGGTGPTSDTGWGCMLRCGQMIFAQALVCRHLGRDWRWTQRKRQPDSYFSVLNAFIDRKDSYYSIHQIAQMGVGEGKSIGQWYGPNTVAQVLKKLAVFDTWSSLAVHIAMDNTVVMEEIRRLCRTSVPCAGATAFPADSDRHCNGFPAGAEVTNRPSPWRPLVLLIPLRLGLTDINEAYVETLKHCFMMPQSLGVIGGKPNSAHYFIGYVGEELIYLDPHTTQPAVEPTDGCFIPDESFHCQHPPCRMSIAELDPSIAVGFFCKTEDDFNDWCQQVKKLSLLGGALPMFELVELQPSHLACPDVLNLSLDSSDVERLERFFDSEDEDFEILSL

Phospholipase A2 = Phospholipase A2 (Homo sapiens, UniProt P04054); assay type: functional;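 further: confirmatory dose-response counterscreen on phospholipase A2, testing hits that came from an ultra-high-throughput screen for ATG4B inhibitors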
[3] = target: T4, Replicative DNA helicase DnaB (Mycobacterium tuberculosis, UniProt P9WMR3); experiment: DnaB intein splicing inhibitors, dose response, biochemical, cell-free fluorescence (AID 449749); assay type: functional
T4 sequence (P9WMR3 whole entry): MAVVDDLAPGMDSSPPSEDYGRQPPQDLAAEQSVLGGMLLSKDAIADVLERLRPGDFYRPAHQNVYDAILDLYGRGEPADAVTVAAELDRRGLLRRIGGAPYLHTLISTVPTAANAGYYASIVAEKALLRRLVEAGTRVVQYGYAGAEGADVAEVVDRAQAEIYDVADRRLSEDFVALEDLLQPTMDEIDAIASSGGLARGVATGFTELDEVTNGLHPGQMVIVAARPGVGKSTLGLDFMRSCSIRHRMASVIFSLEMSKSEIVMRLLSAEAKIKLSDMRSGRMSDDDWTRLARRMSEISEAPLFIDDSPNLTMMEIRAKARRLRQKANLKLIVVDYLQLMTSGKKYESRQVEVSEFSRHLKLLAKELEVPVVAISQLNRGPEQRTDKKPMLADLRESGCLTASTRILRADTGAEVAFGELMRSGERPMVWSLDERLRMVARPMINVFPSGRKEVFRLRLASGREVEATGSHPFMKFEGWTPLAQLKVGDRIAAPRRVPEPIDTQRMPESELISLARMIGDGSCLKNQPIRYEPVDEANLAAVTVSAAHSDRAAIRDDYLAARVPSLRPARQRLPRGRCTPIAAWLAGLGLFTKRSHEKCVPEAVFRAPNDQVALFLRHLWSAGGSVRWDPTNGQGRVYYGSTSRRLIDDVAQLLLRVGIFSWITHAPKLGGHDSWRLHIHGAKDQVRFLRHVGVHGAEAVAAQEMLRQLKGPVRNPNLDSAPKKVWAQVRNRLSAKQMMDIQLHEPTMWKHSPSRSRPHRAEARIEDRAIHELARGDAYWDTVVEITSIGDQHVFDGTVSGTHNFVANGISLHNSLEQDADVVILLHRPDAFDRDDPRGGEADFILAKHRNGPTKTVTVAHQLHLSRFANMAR

[4] = target: T5, Probable nicotinate-nucleotide adenylyltransferase (Staphylococcus aureus (strain N315), UniProt P65502); assay type: functional, Staphylococcus aureus subsp. aureus N315;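 on IC50 Mean: confirmatory dose-response retesting of NadD inhibitor hits first found in an ultra-high-throughput screen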
Protein RecA = target: T6, Protein RecA (Mycobacterium tuberculosis, UniProt P9WHJ3); experiment: Fluorescence Cell-Free Homogeneous Dose Retest to Identify Inhibitors of RecA-Intein Splicing Activity. [Related pubchem assays (depositor defined):AID2097, AID2223, AID489010, AID492950]; assay type: functional
T6 sequence (P9WHJ3 whole entry): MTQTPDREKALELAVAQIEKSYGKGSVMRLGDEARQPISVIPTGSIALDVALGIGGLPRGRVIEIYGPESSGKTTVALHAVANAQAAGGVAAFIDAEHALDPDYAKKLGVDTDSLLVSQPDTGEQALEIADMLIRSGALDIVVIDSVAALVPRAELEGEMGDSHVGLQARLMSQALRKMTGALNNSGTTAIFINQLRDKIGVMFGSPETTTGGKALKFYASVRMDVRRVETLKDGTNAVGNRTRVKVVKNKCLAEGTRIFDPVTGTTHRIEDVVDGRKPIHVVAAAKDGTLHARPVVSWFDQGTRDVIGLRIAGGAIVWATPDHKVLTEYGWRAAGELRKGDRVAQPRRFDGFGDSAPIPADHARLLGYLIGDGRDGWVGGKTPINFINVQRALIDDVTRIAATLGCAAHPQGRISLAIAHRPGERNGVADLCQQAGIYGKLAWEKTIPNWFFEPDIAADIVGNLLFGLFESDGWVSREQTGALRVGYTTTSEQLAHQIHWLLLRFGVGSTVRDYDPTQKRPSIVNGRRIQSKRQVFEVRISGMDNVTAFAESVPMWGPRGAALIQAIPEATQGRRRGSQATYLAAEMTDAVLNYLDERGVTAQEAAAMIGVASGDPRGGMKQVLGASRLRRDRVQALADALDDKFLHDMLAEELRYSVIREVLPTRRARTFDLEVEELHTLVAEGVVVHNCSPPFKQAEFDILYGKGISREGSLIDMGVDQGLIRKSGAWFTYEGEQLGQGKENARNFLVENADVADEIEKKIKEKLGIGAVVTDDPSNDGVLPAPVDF

[5] = target: T5, Probable nicotinate-nucleotide adenylyltransferase; assay type: functional, Staphylococcus aureus subsp. aureus N315; conditions: read-out: IC50_Mean
cells = assay type: functional
[6] = target: T7, Mannose-6-phosphate isomerase (Homo sapiens, UniProt P34949); experiment: human PMI inhibitors, high substrate, primary screen, biochemical, fluorescence intensity, high mannose 6-phosphate (AID 1220)
T7 sequence (P34949 whole entry): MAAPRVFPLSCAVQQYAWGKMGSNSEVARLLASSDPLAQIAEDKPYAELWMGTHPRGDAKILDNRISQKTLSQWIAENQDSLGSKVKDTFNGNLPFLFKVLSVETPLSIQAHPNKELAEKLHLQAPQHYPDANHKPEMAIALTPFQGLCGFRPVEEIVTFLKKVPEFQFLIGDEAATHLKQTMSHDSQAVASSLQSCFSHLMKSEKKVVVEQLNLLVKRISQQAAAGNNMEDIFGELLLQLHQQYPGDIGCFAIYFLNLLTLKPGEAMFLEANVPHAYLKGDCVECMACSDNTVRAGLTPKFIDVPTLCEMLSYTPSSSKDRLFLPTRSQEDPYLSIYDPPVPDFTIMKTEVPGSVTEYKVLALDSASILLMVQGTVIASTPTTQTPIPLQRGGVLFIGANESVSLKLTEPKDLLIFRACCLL

BJ [7] = experiment: cytotoxicity toward BJ-TERT-LT-ST fibroblasts, dose response, cell-based, RAS-independent, luminescence (AID 1935); assay type: functional; conditions: Homo sapiens;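 further: BJ fibroblasts immortalized with TERT plus LT and ST oncogenes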
BJ [8] = experiment: cells; assay type: functional, cell-based; conditions: Homo sapiens
[9] = target: T8, Tyrosyl-DNA phosphodiesterase 2 (Homo sapiens, UniProt O95551); experiment: human TDP2 enzyme inhibitors, dose response, biochemical, epi absorbance, IC50 (AID 743297)
T8 sequence (O95551 whole entry): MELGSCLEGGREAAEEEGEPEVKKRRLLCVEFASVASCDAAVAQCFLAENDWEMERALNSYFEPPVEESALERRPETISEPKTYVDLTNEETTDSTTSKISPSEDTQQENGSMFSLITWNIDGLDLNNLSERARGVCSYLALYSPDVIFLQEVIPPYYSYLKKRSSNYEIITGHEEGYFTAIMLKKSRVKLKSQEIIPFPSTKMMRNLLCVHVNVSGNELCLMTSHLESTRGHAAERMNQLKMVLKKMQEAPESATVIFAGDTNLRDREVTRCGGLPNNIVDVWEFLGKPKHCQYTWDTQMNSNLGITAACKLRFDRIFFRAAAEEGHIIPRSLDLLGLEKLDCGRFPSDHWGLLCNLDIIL

[10] = HepG2 cell cytotoxicity, dose response, cytotoxicity control for non-replicating M. tuberculosis project (AID 489018); assay type: functional; conditions: Mycobacterium tuberculosis
[11] = growth suppression of beta-catenin-knockout colon cells, dose response, cell-based, HCT116, human colon tumor (AID 1045); assay type: functional;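 further: HCT116 colon tumor cells with beta catenin knocked out; cells exposed to compound for 60 hours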
[12] = Vero E6 cell cytotoxicity, dose response, cytotoxicity control for non-replicating M. tuberculosis project, secondary assay (AID 492998); assay type: functional, VeroE6; conditions: Vero C1008
[13] = microbe, parasite or virus in culture; assay type: functional; conditions: Mycobacterium tuberculosis
[14] = cytotoxicity toward DRD oncogenic fibroblasts, dose response, cell-based, non-viral oncogenic, luminescence (AID 1934); assay type: functional; conditions: Homo sapiens
[15] = cytotoxicity toward NIH3T3 fibroblasts, dose response, counter-screen, cell-based, ATP luminescence, mouse fibroblasts (AID 2010); assay type: functional;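 further: cells exposed to compound for about 90 hours before reading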
[16] = growth suppression of PTEN-null colon cells, dose response, cell-based, HCT116 PTEN knockout (AID 1047); assay type: functional;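 further: HCT116 colon tumor cells with PTEN knocked out; cells exposed to compound for 60 hours before readout; potency for loss of cell viability measured by luminescence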
[17] = inhibitors of intracellular T. cruzi replication, confirmation, NIH3T3 host cells, beta-gal luminescence (AID 2044); assay type: functional, cell-based;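 further: intracellular parasites grown in NIH/3T3 mouse fibroblasts as host cells; luminescent beta-galactosidase reporter signal from transgenic T. cruzi replicating inside host cells; inhibitors lower the luminescence signal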
[18] = THP-1 cell cytotoxicity, dose response, cytotoxicity control for non-replicating M. tuberculosis project (AID 489025); assay type: functional
INS1 = experiment: beta cell apoptosis inhibitors, cytokine rescue, dose response, luminescence, retest (AID 449756); assay type: functional, cell-based; conditions: Rattus norvegicus;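 further: cell death triggered by IL-1 beta plus TNF-alpha plus IFN-gamma mixture; protective hits raise ATP signal compared with cytokine alone wells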
BJ [19] = experiment: cytotoxicity toward BJ-TERT fibroblasts, dose response, cell-based, RAS-independent, luminescence (AID 1933); assay type: functional; conditions: Homo sapiens

T5 sequence (P65502 whole entry): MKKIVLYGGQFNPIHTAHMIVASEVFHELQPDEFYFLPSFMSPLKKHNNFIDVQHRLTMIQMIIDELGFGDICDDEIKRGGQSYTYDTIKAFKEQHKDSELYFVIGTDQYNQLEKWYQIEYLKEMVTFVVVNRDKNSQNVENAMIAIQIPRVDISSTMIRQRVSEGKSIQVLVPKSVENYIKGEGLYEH
Chain of DNA damage-inducible transcript 3 protein (P35639 whole entry): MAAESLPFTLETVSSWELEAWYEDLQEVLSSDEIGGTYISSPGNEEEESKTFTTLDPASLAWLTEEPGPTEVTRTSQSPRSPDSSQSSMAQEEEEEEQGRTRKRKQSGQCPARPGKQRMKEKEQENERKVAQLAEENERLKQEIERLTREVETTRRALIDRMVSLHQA
Chain of Phospholipase A2 (P04054 whole entry): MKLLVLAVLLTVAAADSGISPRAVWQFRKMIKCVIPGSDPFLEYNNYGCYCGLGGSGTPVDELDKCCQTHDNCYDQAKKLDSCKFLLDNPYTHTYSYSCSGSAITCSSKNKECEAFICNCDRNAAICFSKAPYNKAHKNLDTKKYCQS

SMILES: CCn1cc([N+](=O)[O-])c(C(=O)N2N=C(c3ccc(Cl)c(Cl)c3)CC2c2ccccc2O)n1 (stereo unspecified)
- Absolute IC50 (CHOP) [1]: 10 µM
- EC50 [2]: > 260 µM (inactive)

SMILES: CCC1SC(CC)C(=O)N(CC(=O)NC2CCCCC2)C1=O (stereo unspecified)
- IC50 (Coagulation factor XII): > 50 µM (inactive)

SMILES: CN(C)c1ccc(-c2nnn(Cc3ccccc3Br)n2)cc1
- IC50 (Cysteine protease ATG4B): 13.2 µM (active)
- IC50 (Phospholipase A2): 7.95 µM (active)

SMILES: CC(=O)c1ccc(N2CCN(S(=O)(=O)c3cccc(S(=O)(=O)N4CCOCC4)c3)CC2)cc1
- IC50 (Coagulation factor XII): > 50 µM (inactive)

SMILES: CCOc1ccc(N2C(=O)/C(=C\c3ccc(O)c(OC)c3)S(=O)(=O)C2c2cccc([N+](=O)[O-])c2)cc1 (stereo unspecified)
- Absolute IC50 (CHOP) [1]: 10 µM
- AC50 [3]: 2.96 µM (active)
- IC50 [4]: 9.57 µM (active)
- EC50 (Protein RecA): 3.74 µM (active)
- IC50 [5]: 35.9 µM (active)
- EC50 [2]: 8.52 µM (active)

SMILES: O=C1OC(Nc2ncccn2)c2ccccc21 (stereo unspecified)
- IC50 (Coagulation factor XII): > 50 µM (inactive)

SMILES: CCCNC1=C(N(C(C)=O)c2cccc(F)c2)C(=O)c2ccccc2C1=O
- IC50 (cells): 20.8 µM (active)
- IC50 [6]: > 50 µM (not active)
- EC50 (BJ [7]): 6.6 µM (active)
- EC50 (BJ [8]): 5.96 µM (active)
- AC50 [3]: 9.44 µM (active)
- IC50 [9]: > 4.75 µM (active)
- CC50 [10]: 8.6 µM (active)
- EC50 (Protein RecA): 2.06 µM (active)
- EC50 [11]: 979 nM (active)
- CC50 [12]: 17.7 µM (active)
- CC50 [13]: 31 µM (active)
- EC50 [14]: 6.47 µM (active)
- EC50 [15]: 10.3 µM (active)
- EC50 [16]: 1.14 µM (active)
- EC50 [17]: 1.23 µM (active)
- CC50 [18]: 1.47 µM (active)
- AC50 (INS1): 1.03 µM (active)
- EC50 (BJ [19]): 6.47 µM (inconclusive)
